In US7282496B2, “Allenic aryl sulfonamide hydroxamic acids as matrix metalloproteinase and TACE inhibitors” (Wyeth Holdings Corporation, priority 2001, dated 2007):

Columns and labels:
Format in all cases: biochemical
[1] = target: T1, MMP-1 (Homo sapiens, UniProt P03956); experiment: MMP-1 inhibition, thiopeptide or fluorescent peptide substrate test procedure; details: for IC50: in vitro enzyme inhibition
T1 sequence (P03956 100-469): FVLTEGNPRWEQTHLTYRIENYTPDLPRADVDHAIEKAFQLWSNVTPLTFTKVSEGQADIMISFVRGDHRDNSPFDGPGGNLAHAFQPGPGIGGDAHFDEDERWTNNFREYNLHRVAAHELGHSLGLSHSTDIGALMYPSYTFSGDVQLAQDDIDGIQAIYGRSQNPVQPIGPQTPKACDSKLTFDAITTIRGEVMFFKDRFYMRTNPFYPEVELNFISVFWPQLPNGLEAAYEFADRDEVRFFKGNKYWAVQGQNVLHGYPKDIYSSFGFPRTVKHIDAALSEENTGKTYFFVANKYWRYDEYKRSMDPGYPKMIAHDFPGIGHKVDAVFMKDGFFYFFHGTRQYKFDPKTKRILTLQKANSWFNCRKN
Experimental: (§1) Test Procedures for Measuring MMP-1, MMP-9, and MMP-13 Inhibition
(§2) These standard pharmacological test procedures are based on the cleavage of a thiopeptide substrates such as Ac-Pro-Leu-Gly(2-mercapto-4-methyl-pentanoyl)-Leu-Gly-OEt by the matrix metalloproteinases MMP-1, MMP-13 (collagenases) or MMP-9 (gelatinase), which results in the release of a substrate product that reacts calorimetrically with DTNB (5,5′-dithiobis(2-nitro-benzoic acid)). The enzyme activity is measured by the rate of the color increase. The thiopeptide substrate is made up fresh as a 20 mM stock in 100% DMSO and the DTNB is dissolved in 100% DMSO as a 100 mM stock and stored in the dark at room temperature. Both the substrate and DTNB are diluted together to 1 mM with substrate buffer (50 mM HEPES pH 7.5, 5 mM CaCl2) before use. The stock of enzyme is diluted with buffer (50 mM HEPES, pH 7.5, 5 mM CaCl2, 0.02% Brij) to the desired final concentration. The buffer, enzyme, vehicle or inhibitor, and DTNB/substrate are added in this order to a 96 well plate (total reaction volume of 200 μl) and the increase in color is monitored spectrophotometrically for 5 minutes at 405 nm on a plate reader and the increase in color over time is plotted as a linear line.
(§3) Alternatively, a fluorescent peptide substrate is used. In this test procedure, the peptide substrate contains a fluorescent group and a quenching group. Upon cleavage of the substrate by an MMP, the fluorescence that is generated is quantitated on the fluorescence plate reader. The assay is run in HCBC assay buffer (50 mM HEPES, pH 7.0, 5 mM Ca^+2, 0.02% Brij, 0.5% Cysteine), with human recombinant MMP-1, MMP-9, or MMP-13. The substrate is dissolved in methanol and stored frozen in 1 mM aliquots. For the assay, substrate and enzymes are diluted in HCBC buffer to the desired concentrations. Compounds are added to the 96 well plate containing enzyme and the reaction is started by the addition of substrate. The reaction is read (excitation 340 nm, emission 444 nm) for 10 min. and the increase in fluorescence over time is plotted as a linear line.
(§4) For either the thiopeptide or fluorescent peptide test procedures, the slope of the line is calculated and represents the reaction rate. The linearity of the reaction rate is confirmed (r^2>0.85). The mean (x±sem) of the control rate is calculated and compared for statistical significance (p<0.05) with drug-treated rates using Dunnett's multiple comparison test. Dose-response relationships can be generated using multiple doses of drug and IC50 values with 95% Cl are estimated using linear regression.

[2] = target: MMP-13 (Homo sapiens, UniProt P45452); experiment: MMP-13 inhibition, thiopeptide or fluorescent peptide substrate test procedure; details: in vitro enzyme inhibition
Experimental: as §1, §2, §3, §4

[3] = target: TNF-α converting enzyme (TACE) (Homo sapiens, UniProt P78536); experiment: TACE inhibition, fluorescent peptidyl substrate test procedure; details: in vitro enzyme inhibition
Experimental: Test Procedure for Measuring TACE Inhibition
Using 96-well black microtiter plates, each well receives a solution composed of 10 μL TACE (final concentration 1 μg/mL), 70 μL Tris buffer, pH 7.4 containing 10% glycerol (final concentration 10 mM), and 10 μL of test compound solution in DMSO (final concentration 1 μM, DMSO concentration <1%) and incubated for 10 minutes at room temperature. The reaction is initiated by addition of a fluorescent peptidyl substrate (final concentration 100 μM) to each well and then shaking on a shaker for 5 sec.
The reaction is read (excitation 340 nm, emission 420 nm) for 10 min. and the increase in fluorescence over time is plotted as a linear line. The slope of the line is calculated and represents the reaction rate.
The mean (x±sem) of the control rate is calculated and compared for statistical significance (p<0.05) with drug-treated rates using Dunnett's multiple comparison test.

[4] = target: MMP-9 (Homo sapiens, UniProt P14780); experiment: MMP-9 inhibition, thiopeptide or fluorescent peptide substrate test procedure; details: in vitro enzyme inhibition
Experimental: as §1, §2, §3, §4

Sequence of MMP-9 (P14780 94-707): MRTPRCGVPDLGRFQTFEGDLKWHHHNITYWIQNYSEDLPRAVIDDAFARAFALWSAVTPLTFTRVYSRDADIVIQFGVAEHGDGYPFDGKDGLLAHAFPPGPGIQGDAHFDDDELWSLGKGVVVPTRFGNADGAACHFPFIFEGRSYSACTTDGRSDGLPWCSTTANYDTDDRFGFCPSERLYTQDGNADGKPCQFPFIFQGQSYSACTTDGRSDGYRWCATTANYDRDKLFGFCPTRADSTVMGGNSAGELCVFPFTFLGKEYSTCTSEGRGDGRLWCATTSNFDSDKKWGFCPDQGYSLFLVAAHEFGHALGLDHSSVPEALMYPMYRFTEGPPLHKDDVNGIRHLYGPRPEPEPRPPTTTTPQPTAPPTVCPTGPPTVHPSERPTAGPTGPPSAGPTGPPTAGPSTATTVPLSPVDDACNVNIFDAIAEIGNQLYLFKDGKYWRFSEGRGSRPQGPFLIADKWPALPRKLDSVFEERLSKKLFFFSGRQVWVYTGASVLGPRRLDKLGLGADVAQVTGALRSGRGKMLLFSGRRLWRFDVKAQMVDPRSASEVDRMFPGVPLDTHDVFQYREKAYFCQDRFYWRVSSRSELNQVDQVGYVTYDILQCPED
Sequence of TNF-α converting enzyme (TACE) (P78536 215-824, species assumed): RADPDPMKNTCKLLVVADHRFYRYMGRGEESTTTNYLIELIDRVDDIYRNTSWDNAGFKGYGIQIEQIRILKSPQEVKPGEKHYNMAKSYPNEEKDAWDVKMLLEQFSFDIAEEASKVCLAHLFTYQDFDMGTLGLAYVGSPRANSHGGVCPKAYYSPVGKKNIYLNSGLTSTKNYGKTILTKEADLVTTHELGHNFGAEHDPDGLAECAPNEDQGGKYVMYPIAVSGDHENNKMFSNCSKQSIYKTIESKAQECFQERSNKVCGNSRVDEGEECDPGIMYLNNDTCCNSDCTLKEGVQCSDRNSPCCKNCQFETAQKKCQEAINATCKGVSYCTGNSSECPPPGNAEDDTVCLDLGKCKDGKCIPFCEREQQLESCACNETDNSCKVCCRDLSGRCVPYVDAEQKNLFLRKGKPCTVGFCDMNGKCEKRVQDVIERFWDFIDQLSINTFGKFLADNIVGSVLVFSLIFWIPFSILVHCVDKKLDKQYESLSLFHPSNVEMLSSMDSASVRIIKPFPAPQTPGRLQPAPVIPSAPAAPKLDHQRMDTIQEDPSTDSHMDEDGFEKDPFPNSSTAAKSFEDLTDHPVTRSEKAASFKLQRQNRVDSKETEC

Row | Structure (SMILES) | IC50 [1] [nM] | IC50 [2] [nM] | IC50 [3] [nM] | IC50 [4] [nM] | inhibition at 1 µM ([1]; 1 μM, read-out: MMP-1 % (inhibition) at single concentration) [%]
1 | C=C=CCOc1ccc(S(=O)(=O)N2CCSC(C)(C)[C@@H]2C(=O)NO)cc1 [Example 26, (3S)-4-{[4-(2,3-Butadienyloxy)phenyl]sulfonyl}-N-hydroxy-2,2-dimethyl-3-thiomorpholinecarboxamide] | 50 | 4 | 116 | – | –
2 | C=C=CCOc1ccc(S(=O)(=O)NC(C(=O)NO)C(C)C)cc1 (centres unmarked) [Example 13, 2-({[4-(2,3-Butadienyloxy)phenyl]sulfonyl}amino)-N-hydroxy-3-methylbutanamide] | 2670 | 21 | 51 | 36 | –
3 | CC=C=CCOc1ccc(S(=O)(=O)N(C)C(C(=O)NO)C(C)C)cc1 (centres unmarked) [Example 22, N-Hydroxy-3-methyl-2-(methyl{[4-(2,3-pentadienyloxy)phenyl]sulfonyl}amino)butanamide] | 877 | 6 | 48 | 4 | –
4 | C=C=CCOc1ccc(S(=O)(=O)N(C)C(C(=O)NO)C(C)C)cc1 (centres unmarked) [Example 16, 2-[{[4-(2,3-Butadienyloxy)phenyl]sulfonyl}(methyl)amino]-N-hydroxy-3-methylbutanamide] | – | 3 | 36 | – | –
5 | CC=C=CCOc1ccc(S(=O)(=O)N2Cc3ccccc3N(C(=O)c3ccccc3)CC2C(=O)NO)cc1 (centres unmarked) [Example 47, 1-Benzoyl-N-hydroxy-4-{[4-(2,3-pentadienyloxy)phenyl]sulfonyl}-2,3,4,5-tetrahydro-1H-1,4-benzodiazepine-3-carboxamide] | – | 5 | 1400 | – | 32
6 | CC=C=CCOc1ccc(S(=O)(=O)NC(C(=O)NO)C(C)C)cc1 (centres unmarked) [Example 19, N-Hydroxy-3-methyl-2-({[4-(2,3-pentadienyloxy)phenyl]sulfonyl}amino)butanamide] | 8810 | 25 | 62 | 21 | –
7 | C=C=CCOc1ccc(S(=O)(=O)N2Cc3ccccc3N(C(C)=O)CC2C(=O)NO)cc1 (centres unmarked) [Example 45, 1-Acetyl-4-{[4-(2,3-butadienyloxy)phenyl]sulfonyl}-N-hydroxy-2,3,4,5-tetrahydro-1H-1,4-benzodiazepine-3-carboxamide] | 2350 | 7 | 71 | 9 | –
8 | C=C=CCOc1ccc(S(=O)(=O)N2Cc3ccccc3N(C(=O)c3ccccc3)CC2C(=O)NO)cc1 (centres unmarked) [Example 46, 1-Benzoyl-4-(4-buta-2,3-dienyloxy-benzenesulfonyl)-2,3,4,5-tetrahydro-1H-benzo[e][1,4]diazepine-3-carboxylic acid hydroxyamide] | 675 | 4 | – | – | –
